Assays:
Assay type in all cases: in vivo
Echinochloa crus-galli [1] = assay: Test Example 4: herbicidal effect test by stem and leaf treatment in upland field; details: Echinochloa crus-galli; 120 g per 10 ares; sprayed seven days after sowing, upland soil; 14 days after application; read-out: weed inhibition rate
Digitaria ciliaris [2] = assay: as above; details: Digitaria ciliaris; 120 g per 10 ares; sprayed seven days after sowing, upland soil; 14 days after application; read-out: weed inhibition rate
Method: (§1) The present test was conducted in duplicate for each chemical concentration group, and the weed inhibition rate (%) was determined 14 days after chemical application using the following formula (Math. 1). [formula]
(§2) Pots with an area of 36 cm^2 were filled with upland soil (alluvial loam), twenty seeds each of weeds of Digitaria ciliaris, Echinochloa crus-galli, and Amaranthus viridis were uniformly mixed with the top 1 cm layer of soil and the surface was lightly pressed down. Seven days after sowing, an emulsifiable concentrate prepared according to Formulation Example 5 using the compound shown below was diluted with water, and the diluted solution was sprayed onto the soil surface at a rate of 100 liters per 10 ares. The amount of the active ingredient to be applied was equivalent to 120 g per 10 ares. Fourteen days after chemical application, the herbicidal effect was evaluated according to the same criteria as in Test Example 1.

[3] = tested on: Echinochloa crus-galli var. formosensis; assay: Test Example 2: herbicidal effect test by application during growth period of paddy rice; details: Echinochloa crus-galli; 120 g per 10 ares; applied seven days after sowing, flooded pots; 14 days after application; read-out: weed inhibition rate
Method: as §1
(§3) Wagner pots with an area of […] were filled with paddy soil, followed by addition of water and incorporation of chemical fertilizer (N:P:K = 16:16:16), after which puddling was performed. After that, seeds of Echinochloa crus-galli var. formosensis, broad-leaved weeds (Monochoria vaginalis), and Scirpus juncoides were sown at a depth of 0 cm to 1 cm, 30 seeds each. Immediately after sowing, the pots were flooded and a water depth of approximately 3 cm was maintained. Subsequent management was conducted in a glass greenhouse. Seven days after sowing, an emulsifiable concentrate prepared according to Formulation Example 5 using the compound shown below was diluted with water, and a specified amount of the diluted solution was applied by dropper. The amount of the active ingredient to be applied was equivalent to 120 g per 10 ares. The test was conducted in duplicate for each chemical concentration group, and the herbicidal effect was evaluated 14 days after chemical application using the same criteria as in Test Example 1.

Digitaria ciliaris [4] = assay: Test Example 3: herbicidal effect test by soil application in upland field; details: Digitaria ciliaris, 120 g per 10 ares, sprayed one day after sowing, 14 days after application, read-out: weed inhibition rate
Method: as §1
as §2, with “crus-galli, Chenopodium album,” for “crus-galli,”, “One day” for “Seven days”

Echinochloa crus-galli [5] = assay: as above; details: Echinochloa crus-galli, 120 g per 10 ares, sprayed one day after sowing, 14 days after application, read-out: weed inhibition rate
Method: as §1
as §2, with “crus-galli, Chenopodium album,” for “crus-galli,”, “One day” for “Seven days”

[6] = tested on: Echinochloa crus-galli var. formosensis; assay: Test Example 1: herbicidal effect test by soil application in paddy rice; details: Echinochloa crus-galli, soil, 336 h; 120 g active ingredient per 10 ares; applied immediately after sowing, flooded pots; 14 days after application; read-out: weed inhibition rate
Method: as §3, with “([…] Monochoria” for “(Monochoria”, “Immediately thereafter,” for “Seven days after sowing,”, “ares.” for “ares. The test was conducted in duplicate for each chemical concentration group, and the herbicidal effect was evaluated 14 days after chemical application using the same criteria as in Test Example 1.”

CC(C)[C@@]12C[C@H](OCc3ccccc3C#N)[C@@](C)(C[C@H]1Br)O2 [1-1043, 2-[[(1R,2S,4S,5R)-5-bromo-1-methyl-4-isopropyl-7-oxabicyclo[2.2.1]heptan-2-yl]oxymethyl]benzonitrile]
≥ 80%: inhibition at 1200 g/ha (Echinochloa crus-galli [1]) | inhibition at 1200 g/ha (Digitaria ciliaris [2]) | inhibition at 1200 g/ha [3] | inhibition at 1200 g/ha (Digitaria ciliaris [4]) | inhibition at 1200 g/ha (Echinochloa crus-galli [5]) | pest or weed control at 1200 g/ha [6]

CC(C)[C@]12C[C@@H](OCc3ccccc3F)[C@](C)(C[C@@H]1OCC(F)(F)F)O2 [1-1605, (1S,2R,4R,5S)-2-[(2-fluorophenyl)methoxy]-1-methyl-4-isopropyl-5-(2,2,2-trifluoroethoxy)-7-oxabicyclo[2.2.1]heptane]
≥ 80%: inhibition at 1200 g/ha (Echinochloa crus-galli [1]) | inhibition at 1200 g/ha (Digitaria ciliaris [2]) | inhibition at 1200 g/ha [3] | inhibition at 1200 g/ha (Digitaria ciliaris [4]) | inhibition at 1200 g/ha (Echinochloa crus-galli [5]) | pest or weed control at 1200 g/ha [6]

CC(C)[C@@]12C[C@H](OCc3ccccc3)[C@@](C)(CC1I)O2 (mixture of isomers) [1-1081, (1R,2S,4S,SR)-5-iodo-1-methyl-2-phenylmethoxy-4-isopropyl-7-oxabicyclo[2.2.1]heptane]
≥ 80%: inhibition at 1200 g/ha (Echinochloa crus-galli [1]) | inhibition at 1200 g/ha (Digitaria ciliaris [2]) | inhibition at 1200 g/ha [3] | inhibition at 1200 g/ha (Digitaria ciliaris [4]) | inhibition at 1200 g/ha (Echinochloa crus-galli [5]) | pest or weed control at 1200 g/ha [6]

CC(C)C12CC(OCc3cccc(Br)c3)C(C)(CC1Br)O2 (stereo not drawn) [1-1362, 5-bromo-2-[(3-bromophenyl)methoxy]-1-methyl-4-isopropyl-7-oxabicyclo[2.2.1]heptane]
≥ 80%: inhibition at 1200 g/ha (Echinochloa crus-galli [1]) | inhibition at 1200 g/ha (Digitaria ciliaris [2]) | inhibition at 1200 g/ha [3] | inhibition at 1200 g/ha (Digitaria ciliaris [4]) | inhibition at 1200 g/ha (Echinochloa crus-galli [5]) | pest or weed control at 1200 g/ha [6]

CC(C)[C@]12C[C@@H](OCc3ccc4ccccc4c3)[C@](C)(C[C@@H]1Br)O2 [1-716, (1S,2R,4R,5S)-5-bromo-1-methyl-2-(naphthalen-2-ylmethoxy)-4-isopropyl-7-oxabicyclo[2.2.1]heptane]
≥ 80%: inhibition at 1200 g/ha [3] | pest or weed control at 1200 g/ha [6]

CC(C)C12CC(OCc3ccccc3C(F)(F)F)C(C)(CC1Br)O2 (stereo not drawn) [1-1367, 5-bromo-1-methyl-4-isopropyl-2-[[2-(trifluoromethyl)phenyl]methoxy]-7-oxabicyclo[2.2.1]heptane]
≥ 80%: inhibition at 1200 g/ha (Echinochloa crus-galli [1]) | inhibition at 1200 g/ha (Digitaria ciliaris [2]) | inhibition at 1200 g/ha [3] | inhibition at 1200 g/ha (Digitaria ciliaris [4]) | inhibition at 1200 g/ha (Echinochloa crus-galli [5]) | pest or weed control at 1200 g/ha [6]

CC(C)C12CC(OCc3ccccc3OC(F)(F)F)C(C)(CC1Br)O2 (stereo not drawn) [1-1352, 5-bromo-1-methyl-4-isopropyl-2-[[2-(trifluoromethoxy)phenyl]methoxy]-7-oxabicyclo[2.2.1]heptane]
≥ 80%: inhibition at 1200 g/ha (Echinochloa crus-galli [1]) | inhibition at 1200 g/ha (Digitaria ciliaris [2]) | inhibition at 1200 g/ha [3] | inhibition at 1200 g/ha (Digitaria ciliaris [4]) | inhibition at 1200 g/ha (Echinochloa crus-galli [5]) | pest or weed control at 1200 g/ha [6]

CC(C)[C@@]12C[C@H](OCc3c(F)cccc3Cl)[C@@](C)(C[C@H]1Br)O2 [1-1054, (1R,2S,4S,5R)-5-bromo-2-[(2-chloro-6-fluorophenyl)methoxy]-1-methyl-4-isopropyl-7-oxabicyclo[2.2.1]heptane]
≥ 80%: inhibition at 1200 g/ha (Echinochloa crus-galli [1]) | inhibition at 1200 g/ha (Digitaria ciliaris [2]) | inhibition at 1200 g/ha [3] | inhibition at 1200 g/ha (Digitaria ciliaris [4]) | inhibition at 1200 g/ha (Echinochloa crus-galli [5]) | pest or weed control at 1200 g/ha [6]

COc1ccc(COC2CC3(C(C)C)OC2(C)CC3Br)cc1 (stereo not drawn) [1-1351, 5-bromo-2-[(4-methoxyphenyl)methoxy]-1-methyl-4-isopropyl-7-oxabicyclo[2.2.1]heptane]
≥ 80%: inhibition at 1200 g/ha (Echinochloa crus-galli [1]) | inhibition at 1200 g/ha (Digitaria ciliaris [2]) | inhibition at 1200 g/ha [3] | inhibition at 1200 g/ha (Digitaria ciliaris [4]) | inhibition at 1200 g/ha (Echinochloa crus-galli [5]) | pest or weed control at 1200 g/ha [6]

CC(C)C12CC(OCc3ccc(Cl)cc3)C(C)(CC1Br)O2 (stereo not drawn) [1-1360, 5-bromo-2-[(4-chlorophenyl)methoxy]-1-methyl-4-isopropyl-7-oxabicyclo[2.2.1]heptane]
≥ 80%: inhibition at 1200 g/ha (Echinochloa crus-galli [1]) | inhibition at 1200 g/ha (Digitaria ciliaris [2]) | inhibition at 1200 g/ha [3] | inhibition at 1200 g/ha (Digitaria ciliaris [4]) | inhibition at 1200 g/ha (Echinochloa crus-galli [5]) | pest or weed control at 1200 g/ha [6]

CC(C)C12CC(OCc3ccc(Br)cc3)C(C)(CC1Br)O2 (stereo not drawn) [1-1363, 5-bromo-2-[(4-bromophenyl)methoxy]-1-methyl-4-isopropyl-7-oxabicyclo[2.2.1]heptane]
≥ 80%: inhibition at 1200 g/ha (Echinochloa crus-galli [1]) | inhibition at 1200 g/ha (Digitaria ciliaris [2]) | inhibition at 1200 g/ha [3] | inhibition at 1200 g/ha (Digitaria ciliaris [4]) | inhibition at 1200 g/ha (Echinochloa crus-galli [5]) | pest or weed control at 1200 g/ha [6]

COCO[C@@H]1C[C@]2(C(C)C)O[C@@]1(C)C[C@@H]2Br [1-677, (1S,2R,4R,5S)-5-bromo-2-(methoxymethoxy)-1-methyl-4-isopropyl-7-oxabicyclo[2.2.1]heptane]
≥ 80%: inhibition at 1200 g/ha [3]

CCOC1C[C@]2(C)O[C@@]1(C(C)C)C[C@H]2OCc1ccccc1F (mixture of isomers) [1-916, (1S,2R,4R,SR)-5-ethoxy-2-[(2-fluorophenyl)methoxy]-1-methyl-4-isopropyl-7-oxabicyclo[2.2.1]heptane]
≥ 80%: inhibition at 1200 g/ha (Echinochloa crus-galli [1]) | inhibition at 1200 g/ha (Digitaria ciliaris [2])

Cc1ccc(C2C[C@]3(C)O[C@@]2(C(C)C)C[C@H]3OCc2ccccc2F)cc1 (stereo partly drawn) [1-927, (1S,2R,4R)-2-((2-fluorobenzyl)oxy)-4-isopropyl-1-methyl-5-(p-tolyl)-7-oxabicyclo[2.2.1]heptane]
≥ 80%: inhibition at 1200 g/ha (Digitaria ciliaris [4]) | inhibition at 1200 g/ha (Echinochloa crus-galli [5])

COc1cccc(CO[C@@H]2C[C@]3(C(C)C)O[C@@]2(C)CC3=O)c1 [2-347, (1R,4S,5R)-1-isopropyl-5-((3-methoxybenzyl)oxy)-4-methyl-7-oxabicyclo[2.2.1]heptan-2-one]
≥ 80%: inhibition at 1200 g/ha (Echinochloa crus-galli [5]) | pest or weed control at 1200 g/ha [6]

C#CCO[C@@H]1C[C@]2(C(C)C)O[C@@]1(C)C[C@@H]2Br [1-673, (1S,2R,4R,5S)-5-bromo-1-methyl-4-isopropyl-2-prop-2-ynoxy-7-oxabicyclo[2.2.1]heptane]
≥ 80%: inhibition at 1200 g/ha [3] | pest or weed control at 1200 g/ha [6]

C=CCO[C@@H]1C[C@]2(C(C)C)O[C@@]1(C)C[C@@H]2Br [1-671, (1S,2R,4R,5S)-5-bromo-1-methyl-4-isopropyl-2-prop-2-enoxy-7-oxabicyclo[2.2.1]heptane]
≥ 80%: inhibition at 1200 g/ha (Echinochloa crus-galli [1])

Reference: EP4707280A1, “1,4-CINEOLE DERIVATIVE AND INTERMEDIATE THEREOF, HERBICIDE CONTAINING SAID DERIVATIVE AS ACTIVE INGREDIENT, METHOD FOR USING HERBICIDE, AND METHOD FOR PREPARING AGROCHEMICAL COMPOSITION” (HOKKO CHEMICAL INDUSTRY CO., LTD., priority 2023, dated 2024)
